According to article PMC2909000 (Current topics in medicinal chemistry, 2009):
Read-outs that look alike come from different tables or passages of the source.

Columns and labels:
[1] = tested on: two component NS2B-NS3 Proteinase of West Nile Virus; settings: another MLSCN Center; ref xxix, xxx; cited from earlier work
cathepsin L = cathepsin L (Homo sapiens, UniProt P07711); assay type: biochemical; settings: stoichiometric amounts of enzyme
[2] = reaction of 15a in the presence of cysteine, LC/MS monitoring for products; assay type: physicochemical
cathepsin B = settings: relative to cathepsin L
human liver cathepsin L = settings: cited from earlier work
Leishmania major = settings: read-out: IC50, Leishmania major; cellular model of infection; ref xl; cited from earlier work
Plasmodium falciparum = settings: read-out: IC50, Plasmodium falciparum; cellular model of infection; ref xl; cited from earlier work
zebrafish = settings: cited from earlier work
[3] = tested on: bovine aortic endothelial cells; settings: ref xl; cited from earlier work
SARS-CoV = settings: cited from earlier work
Ebola virus = settings: cited from earlier work

Sequence of cathepsin L (P07711 114-333): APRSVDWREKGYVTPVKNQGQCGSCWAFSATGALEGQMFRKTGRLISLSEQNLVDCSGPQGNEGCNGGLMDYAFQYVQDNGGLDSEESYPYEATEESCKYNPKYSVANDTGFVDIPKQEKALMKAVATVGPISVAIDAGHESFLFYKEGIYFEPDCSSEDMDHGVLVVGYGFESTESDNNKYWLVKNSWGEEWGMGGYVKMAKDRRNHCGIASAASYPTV

## COc1ccc(S(=O)(=O)n2nc(OC(=O)c3ccccc3)cc2N)cc1 [CID 655490]
[1]
  mode of inhibition of NS2B-NS3 Proteinase: slow-binding, reversible, non-competitive inhibitor

## CCc1ccccc1NC(=O)CSC(=O)NNC(=O)[C@H](Cc1c[nH]c2ccccc12)NC(=O)OC(C)(C)C [Compound 15a]
Cathepsin L
  products of hydrolysis (20 and 21) detected by LC/MS: No products were detected
[2]
  products detected in the presence of cysteine: no detectable products
Cathepsin B; ref xl
  Selectivity vs cathepsin B: 45-fold
Human liver cathepsin L; cathepsin L, no preincubation stated, ref xl
  IC50: 0.056 µM
Human liver cathepsin L; cathepsin L, ref xl
  Ki: 0.00089 µM
  koff: 2.2e-05 s⁻¹
Human liver cathepsin L; read-out: Cathepsin L inhibition IC50, analogs of 15a, ref xlii
  IC50: 0.056 µM
Human liver cathepsin L; read-out: IC50(4h preincubation), cathepsin L, 4h preincubation, ref xl
  IC50: 0.001 µM
Human liver cathepsin L; ref xl
  kinetic characterization of inhibition: slowly reversible inhibition
Leishmania major
  IC50: 12.5 µM
Plasmodium falciparum
  IC50: 15.4 µM
zebrafish; ref xl
  Toxicity (zebrafish): >100 µM
[3]
  Toxicity (bovine aortic endothelial cells): 16 µM

## CC(C)(C)OC(=O)N[C@@H](Cc1c[nH]c2ccccc12)C(=O)NNC(=O)OCC(=O)N1CCCc2ccccc21 [Compound 19]
Cathepsin B; ref xxx
  selectivity compared to cathepsin B: > 700 fold
Human liver cathepsin L; read-out: IC50 against cathepsin L with a 4 hour pre-incubation, 4 hour pre-incubation, ref xxx
  IC50: 0.0004 µM
Human liver cathepsin L; read-out: IC50 against cathepsin L, no pre-incubation, ref xxx
  IC50: 0.007 µM
Human liver cathepsin L; ref xxxviii
  cathepsin L activity of analogs with modified C2 carbonyl reactivity: as potent as the thiocarbazate
zebrafish; no toxicity detected up to this concentration, ref xxx
  toxicity in zebrafish whole organism assay: > 100 µM
SARS-CoV
  concentration preventing entry of SARS-CoV into cells: sub-micromolar
Ebola virus
  concentration preventing entry of Ebola virus into cells: sub-micromolar
